The term Ki denotes a measure of affinity in units of concentration, obtained from inhibition or displacement.

8 compounds from US10894808B2, “Polypeptide ligands specific for plasma kallikrein” (BicycleRD Limited, priority 2013, dated 2021) can be followed below.

Like-named read-outs stand apart in the source and are kept apart here. *1 amine or outer side, *2 acyl side, *3 side chain or, on linkers, in order; H or OH if unused. Where a SMILES comes first, the peptide text is derived from it. Bridges are numbered along the chain shown (N, C = ends). [ ]: non-standard residue; d: D form. TBMB = c1c(C[*:1])cc(C[*:3])cc1C[*:2]; hArg = N=C(N)NCCCC[C@H](N)C(=O)O; Aze = O=C(O)[C@@H]1CCN1

Data set [1] can be described thus: Plasma stability profiling Method #2 (95% plasma, MALDI-TOF), rat plasma. The data set is classed as in vitro ADME. The settings on record: qualitative, sampled up to 46 hrs. The protocol:
(§1) To obtain stability data more rapidly, peptides were also assessed in 95% plasma. Here, PBS was omitted, and a 1-5 mM peptide stock (in DMSO) was directly diluted into plasma (i.e. 2.5 μL stock into 47.5 μL plasma), giving a final concentration of 50 μM. 5 μL samples were taken at appropriate time points and frozen at −80° C. For analysis, the samples were defrosted, mixed with 25 μL of 3:3:1 acetonitrile:methanol:water, and centrifuged at 13 k for 5 min. 5 μL of the peptide-containing supernatant was aspirated and mixed with 30 mM ammonium bicarbonate in a 1:1 mixture of acetonitrile:H2O. 1 μL of this was then spotted on the MALDI plate and analysed as described above. As above, it should be noted that this is a qualitative assay serves to detect relative changes in plasma stability.

Data set [2] in a line: Plasma stability profiling Method #2 (95% plasma, MALDI-TOF), human plasma. The data set is classed as in vitro ADME. Conditions: qualitative, sampled up to 46 hrs. The method, then:
as §1

Another data set concerns the target T1, human plasma kallikrein (Homo sapiens, UniProt P03952).
T1 construct: purchased Stratech, UK
In words: Functional enzyme assay, inhibition of human plasma kallikrein (Z-PheArg-AMC substrate). The data set is classed as biochemical. The method, then:
(§2) Functional enzyme assays were conducted in 10 mM Tris HCl, 150 mM NaCl, 10 mM MgCl2, 1 mM CaCl2 and 1 mg/mL BSA (all Sigma UK) pH 7.4 at 25° C. in solid black 96 or 384 well plates. […] Release of AMC was measured using a Pherastar FS (BMG Labtech), excitation 360 nm, emission 460 nm. The rate of the linear phase of the reaction, typically 5 to 45 minutes, was calculated in MARS data analysis software (BMG labtech). The rate was then used to calculate the IC50 and Ki in Prism (GraphPad). A four parameter inhibition non-linear regression equation was used to calculate the IC50. […]
(§3) Peptides were dissolved as the TFA-salts in their powder form, and stock solutions were usually prepared in water. All solutions were centrifuged and filtered ([…] syringe filters) prior to absorption measurement at 280 nm. Extinction coefficients were calculated based on the Trp/Tyr content of the peptide, and that of TMB (the TMB core, when contained in a peptide, has an extinction coefficient of ˜300 M^−1 cm^−1).

Data set [3] concerns the target T2, biotinylated human plasma kallikrein (Homo sapiens, UniProt P03952).
T2 construct: The human kallikrein is non-recombinant and therefore the heavy chain is present; purchased Innovative Research, Novi, Mich., USA IHPKA; host or cells: from human plasma
The experiment in a line: Homogeneous plate-based screening assay of TBMB-cyclised phage clones (signal:background). The data set is classed as binding. The protocol: Assay of binding of individual clones: Library transformant colonies were picked at random and grown as individual cultures in 2TY broth containing selective antibiotic. The picked colonies were DNA-sequenced using a QIAgen PyroMark Q96 DNA sequencer to reveal the amino-acid substitution present in each clone. Where isolated, a clone of each unique substitution was assayed for human plasma kallikrein binding as follows. The phage-containing supernatant was harvested from the culture and phage were cyclised with tris bromomethyl benzene (TBMB) based on the methods of Heinis et al (Nature Chemical Biology vol. 5 pp 502-507 (2009)). The purified phage from this process were assayed for binding to biotinylated human plasma kallikrein using a homogeneous plate-based binding assay; assay read-out measured on a BMG Labtech Pherastar FS plate reader. The quantitative binding data from triplicate assay samples was averaged (mean) and expressed as signal:background (where background was a sample assayed with no target material). The signal:background was expressed as a % of the parallel parent sample. Error bars denote standard deviation of the mean. Assays shown are representative of at least 2 independent experiments. The assay data was correlated with the peptide sequences. Substitutions marked in grey were not tested (a clone was not isolated from the random library sampling). A sample of a non-binding (arbitrary) bicycle was assayed in parallel to illustrate the assay baseline.
Assay of binding of individual clones: Library transformant colonies, or selection output colonies, were picked and grown as individual cultures in 2TY broth containing selective antibiotic. The picked colonies were DNA-sequenced using a QIAgen PyroMark Q96 DNA sequencer to reveal the amino-acid substitution present in each clone, and were assayed for human plasma kallikrein binding as follows. The phage-containing supernatant was harvested from the culture and phage were cyclised with tris-bromomethylbenzene (TBMB) based on the methods of Heinis et al (Nature Chemical Biology vol. 5 pp 502-507 (2009)). The purified phage from this process were assayed for binding to biotinylated human plasma kallikrein using a homogeneous plate-based binding assay; assay read-out measured on a BMG Labtech Pherastar FS plate reader. The quantitative binding data from duplicate assay samples was averaged (mean) and expressed as signal:background. Assay data shown is representative of at least 2 independent experiments. The assay data was correlated with the peptide sequences.

In a further data set the target is T3, rat plasma kallikrein (Rattus norvegicus, UniProt P14272).
T3 construct: polyhistidine tag followed by proTEV cleavage site (pro-peptide) (N, cleaved yes); made in house; host or cells: HEK-293 (suspension-adapted), pEXPR-IBA42 vector
In words: Functional enzyme assay, inhibition of rat plasma kallikrein (Z-PheArg-AMC substrate). Type of data set: biochemical. The method, then: as §2, §3

The next data set addresses rabbit kallikrein (Oryctolagus cuniculus, UniProt G1T127). In words: Functional enzyme assay, inhibition of rabbit kallikrein. The data set is classed as biochemical. The settings on record: read-out: Rabbit (Ki). The protocol: as §2, §3
Data set [4] in a line: Aqueous solubility (qualitative). Conditions: in words. Type of data set: physicochemical.
The mark [5] stands for this setting: Table 1, synthetic peptides, read-out: Human (Ki).
[6] abbreviates: Table 3, 06-254 affinity-matured library.
The mark [7] stands for this setting: Table 1, synthetic peptides, read-out: Rat (Ki).
Where [8] appears, read: Table 4, 06-259 affinity-matured library.

Chain of rabbit kallikrein (G1T127 20-629): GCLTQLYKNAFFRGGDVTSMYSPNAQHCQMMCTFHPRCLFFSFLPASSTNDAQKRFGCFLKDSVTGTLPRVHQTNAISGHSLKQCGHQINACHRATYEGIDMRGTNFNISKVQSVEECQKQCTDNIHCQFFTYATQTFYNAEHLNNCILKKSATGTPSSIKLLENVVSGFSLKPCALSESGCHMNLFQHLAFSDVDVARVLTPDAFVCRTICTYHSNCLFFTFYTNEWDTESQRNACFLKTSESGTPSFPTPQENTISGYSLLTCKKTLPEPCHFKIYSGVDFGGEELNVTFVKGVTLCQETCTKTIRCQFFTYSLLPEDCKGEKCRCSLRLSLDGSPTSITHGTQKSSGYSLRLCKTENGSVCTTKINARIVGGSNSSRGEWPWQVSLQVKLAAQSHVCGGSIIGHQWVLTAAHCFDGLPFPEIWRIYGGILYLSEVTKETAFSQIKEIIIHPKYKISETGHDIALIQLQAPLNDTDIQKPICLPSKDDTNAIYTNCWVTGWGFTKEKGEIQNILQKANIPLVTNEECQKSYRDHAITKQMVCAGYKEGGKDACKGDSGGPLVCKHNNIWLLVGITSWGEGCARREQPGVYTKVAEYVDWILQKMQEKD
T2 sequence (P03952 391-638 limits assumed): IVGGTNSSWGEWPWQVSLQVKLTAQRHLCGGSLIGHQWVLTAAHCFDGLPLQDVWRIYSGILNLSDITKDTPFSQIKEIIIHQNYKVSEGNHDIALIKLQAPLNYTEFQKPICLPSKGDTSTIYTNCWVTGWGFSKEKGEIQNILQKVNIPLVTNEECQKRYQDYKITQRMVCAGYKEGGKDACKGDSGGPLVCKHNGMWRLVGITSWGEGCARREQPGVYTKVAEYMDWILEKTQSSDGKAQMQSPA
T2 sequence (P03952 20-390 partner limits assumed): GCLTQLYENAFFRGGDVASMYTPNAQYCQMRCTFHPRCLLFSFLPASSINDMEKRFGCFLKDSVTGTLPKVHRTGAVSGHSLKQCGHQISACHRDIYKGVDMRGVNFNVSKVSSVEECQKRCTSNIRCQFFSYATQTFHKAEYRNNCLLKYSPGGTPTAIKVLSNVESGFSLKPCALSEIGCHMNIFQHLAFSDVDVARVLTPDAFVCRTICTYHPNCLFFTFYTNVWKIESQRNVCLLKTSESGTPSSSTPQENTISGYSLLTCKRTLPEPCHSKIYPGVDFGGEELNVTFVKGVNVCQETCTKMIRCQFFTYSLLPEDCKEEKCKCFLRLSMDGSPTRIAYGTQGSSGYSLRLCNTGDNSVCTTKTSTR
T1 sequence (P03952 391-638 limits assumed): as the sequence (P03952 391-638 limits assumed) above
T1 sequence (P03952 20-390 partner limits assumed): as the sequence (P03952 20-390 partner limits assumed) above
T3 sequence (P14272 391-638 limits assumed): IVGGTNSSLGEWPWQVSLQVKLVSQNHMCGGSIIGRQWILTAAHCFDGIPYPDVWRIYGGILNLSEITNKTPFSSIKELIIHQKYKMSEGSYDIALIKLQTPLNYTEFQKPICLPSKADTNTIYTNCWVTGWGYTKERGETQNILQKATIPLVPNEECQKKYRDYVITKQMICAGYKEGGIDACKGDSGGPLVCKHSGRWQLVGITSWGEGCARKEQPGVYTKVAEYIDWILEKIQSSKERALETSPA

`CC(C)C[C@@H]1NC(=O)[C@H](CC(=O)O)NC(=O)[C@H](CCC(N)=O)NC(=O)[C@H](Cc2c[nH]cn2)NC(=O)[C@H](CC(C)C)NC(=O)[C@@H]2CSCc3cc(cc(c3)CSC[C@H](N)C(=O)N[C@@H](CO)C(=O)N[C@@H](Cc3c[nH]c4ccccc34)C(=O)N3CCC[C@H]3C(=O)N[C@@H](C)C(=O)N[C@@H](CCCNC(=N)N)C(=O)N2)CSC[C@@H](C(N)=O)NC1=O` [06-34-18, reference compound] (H-CSWPARCLHQDLC-NH2; linker 1-7-13 via TBMB; N-terminus and C-terminus assumed): the “comparative stability in rat plasma” value in data set [1] is “largely disappeared”. In addition, the “comparative stability in human plasma” value in data set [2] was “largely disappeared”.
As for `CC[C@H](C)[C@@H]1NC(=O)[C@H]([C@@H](C)O)NC(=O)[C@H](C(C)C)NC(=O)[C@H](CC(C)C)NC(=O)[C@H](CC(=O)O)NC(=O)[C@@H]2CSCc3cc(cc(c3)CSC[C@@H](C(=O)N[C@@H](C)C(N)=O)NC(=O)[C@H](CO)NC1=O)CSC[C@H](NC(=O)[C@H](C)N)C(=O)N[C@@H](CCCCN)C(=O)N[C@@H](CC(N)=O)C(=O)N[C@@H](Cc1ccc(O)cc1)C(=O)N[C@@H](Cc1c[nH]c3ccccc13)C(=O)N[C@@H](CC(N)=O)C(=O)N1CCC[C@H]1C(=O)N2` [06-254] (H-ACKNYWNPCDLVTISCA-NH2; linker 2-9-16 via TBMB; N-terminus assumed), the Ki was 5.3 nM at human plasma kallikrein (setting [5]); 42.5 nM on rat plasma kallikrein (setting [7]); 280 nM on rabbit kallikrein (Table 1, synthetic peptides); 280 nM at rabbit kallikrein (Table 5). In data set [3] (setting [6]), the “S:B (Signal:Background)” value is 23.48.
In the case of `CC(C)C[C@@H]1NC(=O)[C@H](CC(N)=O)NC(=O)[C@H](CCC(=O)O)NC(=O)[C@H](Cc2c[nH]cn2)NC(=O)[C@H](CC(C)C)NC(=O)[C@@H]2CSCc3cc(cc(c3)CSC[C@H](NC(=O)[C@H](C)N)C(=O)N3CCC[C@H]3C(=O)N[C@@H](Cc3ccc(O)cc3)C(=O)N3CCC[C@H]3C(=O)N[C@@H](Cc3ccccc3)C(=O)N[C@@H](CCCNC(=N)N)C(=O)N2)CSC[C@@H](C(=O)N[C@@H](C)C(N)=O)NC1=O` [06-258] (H-ACPYPFRCLHENLCA-NH2; linker 2-8-14 via TBMB; N-terminus and C-terminus assumed), the Ki was determined as 4.3 nM on human plasma kallikrein (setting [5]); 5.2 nM at rat plasma kallikrein (setting [7]); 331 nM on rabbit kallikrein (Table 1, synthetic peptides); 331 nM on rabbit kallikrein (Table 5).
As to `CC[C@H](C)[C@@H]1NC(=O)[C@@H]2CCCN2C(=O)[C@@H]2CCCN2C(=O)[C@H](CC(=O)O)NC(=O)[C@H](C)NC(=O)[C@H](CO)NC(=O)[C@@H]2CSCc3cc(cc(c3)CSC[C@@H](C(=O)N[C@@H](C)C(N)=O)NC1=O)CSC[C@H](NC(=O)[C@H](C)N)C(=O)N[C@@H](CC(N)=O)C(=O)N[C@@H](Cc1c[nH]cn1)C(=O)N[C@@H](Cc1c[nH]c3ccccc13)C(=O)N[C@@H](CC(N)=O)C(=O)N1CCC[C@H]1C(=O)N[C@@H](Cc1c[nH]c3ccccc13)C(=O)N2` [06-259-03] (H-ACNHWNPWCSADPPICA-NH2; linker 2-9-16 via TBMB; N-terminus and C-terminus assumed), the Ki at human plasma kallikrein (Table 5, read-out: Human (Ki)) was determined as 1.4 nM; at rat plasma kallikrein (Table 5, read-out: Rat (Ki)), 8.2 nM. Further, the “S:B (Signal:Background)” value in data set [3] (setting [8]) was 49.82.
For `CC(C)[C@@H]1NC(=O)[C@H](Cc2c[nH]c3ccccc23)NC(=O)CNC(=O)[C@@H]2CSCc3cc(cc(c3)CSC[C@@H](C(=O)N[C@@H](C)C(N)=O)NC(=O)[C@H](Cc3ccccc3)NC(=O)CNC(=O)CNC1=O)CSC[C@H](NC(=O)[C@H](C)N)C(=O)N[C@@H](CC(N)=O)C(=O)N[C@@H]([C@@H](C)O)C(=O)N[C@@H](Cc1c[nH]c3ccccc13)C(=O)N[C@@H](CC(N)=O)C(=O)N1CCC[C@H]1C(=O)N[C@@H](Cc1c[nH]c3ccccc13)C(=O)N2` [06-259] (H-ACNTWNPWCGWVGGFCA-NH2; linker 2-9-16 via TBMB; N-terminus and C-terminus assumed), the figures for the inhibitory constant (Ki) at human plasma kallikrein (setting [5]) and at rat plasma kallikrein (setting [7]) were 20.1 nM and 6.2 nM, respectively. In data set [3] (setting [8]), the “S:B (Signal:Background)” value is 1.17.
As for `CC[C@H](C)[C@@H]1NC(=O)[C@H](CC(=O)O)NC(=O)[C@@H]2CCCN2C(=O)[C@H](Cc2ccc(O)cc2)NC(=O)[C@H](Cc2ccc(O)cc2)NC(=O)[C@H](C(C)C)NC(=O)[C@@H]2CSCc3cc(cc(c3)CSC[C@@H](C(=O)N[C@@H](C)C(N)=O)NC1=O)CSC[C@H](NC(=O)[C@H](C)N)C(=O)N[C@@H](CC(N)=O)C(=O)N[C@@H](CC(N)=O)C(=O)N[C@@H](Cc1ccccc1)C(=O)N1CCC[C@H]1C(=O)N[C@@H](Cc1ccccc1)C(=O)N[C@@H](CCCNC(=N)N)C(=O)N2` [06-261] (H-ACNNFPFRCVYYPDICA-NH2; linker 2-9-16 via TBMB; N-terminus assumed), the Ki at human plasma kallikrein (setting [5]) was 0.4 nM; on rat plasma kallikrein (setting [7]), 4 nM; at rabbit kallikrein (Table 1, synthetic peptides) it was 1040 nM; on rabbit kallikrein (Table 5) it was 1040 nM.
`CC[C@H](C)[C@@H]1NC(=O)[C@H](CC(=O)O)NC(=O)[C@@H]2CCCN2C(=O)[C@H](Cc2ccc(O)cc2)NC(=O)[C@H](Cc2ccc(O)cc2)NC(=O)[C@H](C(C)C)NC(=O)[C@@H]2CSCc3cc(cc(c3)CSC[C@H](N)C(=O)N[C@@H](CO)C(=O)N[C@@H](Cc3ccccc3)C(=O)N3CC[C@H]3C(=O)N[C@@H](Cc3ccc(O)cc3)C(=O)N[C@@H](CCCCNC(=N)N)C(=O)N2)CSC[C@@H](C(N)=O)NC1=O` [06-550 Aze3 HArg5, -Ci-S-F-[Aze]-Y-[hR]-Cii-V-Y-Y-P-D-I-Ciii-] (H-CSF[Aze]Y[hArg]CVYYPDIC-NH2; linker 1-7-14 via TBMB; N-terminus and C-terminus assumed): the aqueous solubility result in data set [4] is “significantly reduced aqueous solubility”.
For the compound `CC(C)C[C@@H]1NC(=O)[C@H](C)NC(=O)[C@H](CCC(=O)O)NC(=O)[C@H](CC(=O)O)NC(=O)[C@H](C)NC(=O)[C@@H]2CCCN2C(=O)[C@@H]2CSCc3cc(cc(c3)CSC[C@@H](C(=O)NCC(N)=O)NC1=O)CSC[C@H](NC(=O)[C@H](C)N)C(=O)N[C@@H](CO)C(=O)N[C@@H](CC(=O)O)C(=O)N[C@@H](CCCNC(=N)N)C(=O)N[C@@H](Cc1ccccc1)C(=O)N[C@@H](CCCNC(=N)N)C(=O)N[C@@H](CC(N)=O)C(=O)N2` [PK15, reference compound] (H-ACSDRFRNCPADEALCG-NH2; linker 2-9-16 via TBMB (inferred); N-terminus and C-terminus assumed), the Ki is around 1.2 nM at human plasma kallikrein (text b212, read-out: Ki to human kallikrein) and around 500 nM at rat plasma kallikrein (text b212, read-out: Ki to rat kallikrein). Further, the “S:B (Signal:Background)” value in data set [3] (setting [6]) and in data set [3] (setting [8]) was 14.05 each time.
